Assay results as given in PubChem BioAssay AID328 (DTP/NCI, 2004).
Several values for one entry are separate records, joined by “and”; a condition that tells them apart may be missing. Identical values can stand only once. Toxic doses and inconclusive results are not listed. Rule for the calls: active = survival T/C of 150% or more; inactive = T/C below 125% in these data.

Tested on: BDF1 mice, P388 leukemia ip, median survival T/C
Assay: NCI In Vivo Anticancer Drug Screen. Data for tumor model P388 Leukemia (intraperitoneal) in B6D2F1 (BDF1) mice
Conditions: endpoint: median survival time, higher = longer survival
How it was run: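 Vehicle-dosed animals serve as the reference; survival of compound-dosed, tumour-implanted mice is divided by it.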

[1] = dose: 100.0 mg/kg/injection, schedule: Q04DX003 (ip), vehicle: saline with Tween-80
[2] = dose: 200.0 mg/kg/injection, schedule: Q04DX003 (ip), vehicle: saline with Tween-80
[3] = dose: 400.0 mg/kg/injection, schedule: Q04DX003 (ip), vehicle: saline with Tween-80
[4] = dose: 50.0 mg/kg/injection, schedule: Q01DX009 (ip), vehicle: saline with Tween-80
[5] = dose: 100.0 mg/kg/injection, schedule: Q01DX009 (ip), vehicle: saline with Tween-80
[6] = dose: 200.0 mg/kg/injection, schedule: Q01DX009 (ip), vehicle: saline with Tween-80
[7] = dose: 50.0 mg/kg/injection, schedule: Q01DX005 (ip), vehicle: saline
[8] = dose: 100.0 mg/kg/injection, schedule: Q01DX005 (ip), vehicle: saline
[9] = dose: 200.0 mg/kg/injection, schedule: Q01DX005 (ip), vehicle: saline
[10] = dose: 100.0 mg/kg/injection, schedule: Q04DX003 (ip), vehicle: Klucel (hydroxypropylcellulose) (HPC)
[11] = dose: 200.0 mg/kg/injection, schedule: Q04DX003 (ip), vehicle: Klucel (hydroxypropylcellulose) (HPC)
[12] = dose: 400.0 mg/kg/injection, schedule: Q04DX003 (ip), vehicle: Klucel (hydroxypropylcellulose) (HPC)
[13] = dose: 100.0 mg/kg/injection, schedule: Q01DX009 (ip), vehicle: Klucel (hydroxypropylcellulose) (HPC)
[14] = dose: 200.0 mg/kg/injection, schedule: Q01DX009 (ip), vehicle: Klucel (hydroxypropylcellulose) (HPC)

Measured: T/C

COC1=C(N=[N+]=[N-])C(=O)C(OC)=C(N=[N+]=[N-])C1=O
inactive: dose: 10.0 mg/kg/injection, schedule: Q04DX003 (ip), vehicle: saline 100 % of control | dose: 20.0 mg/kg/injection, schedule: Q04DX003 (ip), vehicle: saline 100 % of control | dose: 22.5 mg/kg/injection, schedule: Q01DX009 (ip), vehicle: saline 114 % of control | dose: 40.0 mg/kg/injection, schedule: Q04DX003 (ip), vehicle: saline 108 % of control | dose: 45.0 mg/kg/injection, schedule: Q01DX009 (ip), vehicle: saline 123 % of control | dose: 90.0 mg/kg/injection, schedule: Q01DX009 (ip), vehicle: saline 114 % of control | dose: 90.0 mg/kg/injection, schedule: Q04DX003 (ip), vehicle: saline 122 % of control

COc1cc(C)c(NC(=O)Oc2ccccc2)c(C)c1
inactive: [1] 104 % of control | [2] 104 % of control | [3] 104 % of control

Cc1cn(C2CC(O)C(CO)O2)c(=O)[nH]c1=O (centres undefined)
inactive: dose: 500.0 mg/kg/injection, schedule: Q04DX003 (ip), vehicle: saline 101 % of control | dose: 750.0 mg/kg/injection, schedule: Q04DX003 (ip), vehicle: saline 111 % of control | dose: 1000.0 mg/kg/injection, schedule: Q04DX003 (ip), vehicle: saline 104 % of control

NC(=O)Oc1cccc(OC(N)=O)c1
inactive: dose: 12.5 mg/kg/injection, schedule: Q04DX003 (ip), vehicle: water 106 % of control | dose: 25.0 mg/kg/injection, schedule: Q04DX003 (ip), vehicle: water 106 % of control | dose: 50.0 mg/kg/injection, schedule: Q04DX003 (ip), vehicle: water 111 % of control | dose: 100.0 mg/kg/injection, schedule: Q04DX003 (ip), vehicle: water 106 % of control

CC(=O)Nc1cc(N(CCOS(C)(=O)=O)CCOS(C)(=O)=O)ccc1N=O
active: dose: 0.7 mg/kg/injection, schedule: Q04DX003 (ip), vehicle: saline with Tween-80 179 % of control | dose: 1.1 mg/kg/injection, schedule: Q04DX003 (ip), vehicle: saline with Tween-80 212 % of control | dose: 1.6 mg/kg/injection, schedule: Q04DX003 (ip), vehicle: saline with Tween-80 208 % of control | dose: 1.65 mg/kg/injection, schedule: Q04DX003 (ip), vehicle: saline with Tween-80 150 % of control and 191 % of control | dose: 2.5 mg/kg/injection, schedule: Q04DX003 (ip), vehicle: saline with Tween-80 175 % of control
inactive: dose: 3.75 mg/kg/injection, schedule: Q04DX003 (ip), vehicle: saline with Tween-80 104 % of control

C=C(CC(=O)O)C(=O)O (tested in a mixture with another compound)
inactive: dose: 44.0 mg/kg/injection, schedule: Q01DX009 (ip), vehicle: saline 120 % of control

CCCCNC(=O)n1nnc2ccccc21
inactive: [4] 89 % of control | [5] 106 % of control | [6] 106 % of control

CC(=O)NC(C)C(=O)NC(CC(=O)O)C(=O)O (centres undefined)
inactive: [7] 97 % of control | [8] 100 % of control | [9] 103 % of control

CN(C)c1ccc(NC(=O)C(c2ccccc2)c2ccccc2)cc1
inactive: [7] 86 % of control | [8] 90 % of control | [9] 109 % of control

CN(C)CCC(=O)O
inactive: [5] 100 % of control | [6] 95 % of control | dose: 400.0 mg/kg/injection, schedule: Q01DX009 (ip), vehicle: saline with Tween-80 90 % of control

COc1ccc(CC2OCCC3c4ccccc4NC23)cc1OC (centres undefined)
inactive: [1] 93 % of control | [2] 109 % of control | [3] 111 % of control

CC1CC(OC(=O)CCN2CC2)CC(C)(C)C1 (centres undefined)
inactive: dose: 5.0 mg/kg/injection, schedule: Q04DX003 (ip), vehicle: Klucel (hydroxypropylcellulose) (HPC) 95 % of control and 109 % of control | dose: 10.0 mg/kg/injection, schedule: Q04DX003 (ip), vehicle: Klucel (hydroxypropylcellulose) (HPC) 104 % of control | dose: 20.0 mg/kg/injection, schedule: Q04DX003 (ip), vehicle: Klucel (hydroxypropylcellulose) (HPC) 100 % of control

CN=C(N)c1ccc(N=C(N)c2ccc(C(N)=Nc3ccc(C(N)=NC)cc3)cc2)cc1
active: dose: 13.2 mg/kg/injection, schedule: Q01DX009 (ip), vehicle: saline 150 % of control and 172 % of control | dose: 20.0 mg/kg/injection, schedule: Q01DX009 (ip), vehicle: saline 240 % of control and 218 % of control | dose: 30.0 mg/kg/injection, schedule: Q01DX009 (ip), vehicle: saline 268 % of control and 218 % of control

[O-]/[N+](=C\C=C\c1ccccc1)c1ccccc1
inactive: [10] 100 % of control | [11] 86 % of control | [12] 90 % of control

COc1ccc2nc(NCN3C(=O)c4ccccc4C3=O)sc2c1
inactive: dose: 100.0 mg/kg/injection, schedule: Q01DX001 (ip), vehicle: Klucel (hydroxypropylcellulose) (HPC) 104 % of control | [13] 109 % of control | [10] 100 % of control | dose: 200.0 mg/kg/injection, schedule: Q01DX001 (ip), vehicle: Klucel (hydroxypropylcellulose) (HPC) 100 % of control | [14] 104 % of control | [11] 100 % of control | dose: 400.0 mg/kg/injection, schedule: Q01DX001 (ip), vehicle: Klucel (hydroxypropylcellulose) (HPC) 95 % of control | dose: 400.0 mg/kg/injection, schedule: Q01DX009 (ip), vehicle: Klucel (hydroxypropylcellulose) (HPC) 104 % of control | [12] 100 % of control

O=C(Nc1cccc(C(F)(F)F)c1)Nc1nccs1
inactive: dose: 25.0 mg/kg/injection, schedule: Q01DX009 (ip), vehicle: Klucel (hydroxypropylcellulose) (HPC) 121 % of control | dose: 50.0 mg/kg/injection, schedule: Q01DX009 (ip), vehicle: Klucel (hydroxypropylcellulose) (HPC) 111 % of control | [13] 102 % of control | [14] 104 % of control

COC(=O)C1(C)CCC(c2ccc(OC)cc2)C(CC(=O)O)C1=O (centres undefined)
inactive: dose: 100.0 mg/kg/injection, schedule: Q01DX009 (ip), vehicle: saline 95 % of control | dose: 100.0 mg/kg/injection, schedule: Q04DX003 (ip), vehicle: saline 100 % of control | dose: 200.0 mg/kg/injection, schedule: Q01DX009 (ip), vehicle: saline 104 % of control | dose: 200.0 mg/kg/injection, schedule: Q04DX003 (ip), vehicle: saline 119 % of control | dose: 400.0 mg/kg/injection, schedule: Q01DX009 (ip), vehicle: saline 109 % of control | dose: 400.0 mg/kg/injection, schedule: Q04DX003 (ip), vehicle: saline 96 % of control

COc1cc(C(=O)N(CCCl)N=O)cc(OC)c1OC
inactive: dose: 25.0 mg/kg/injection, schedule: Q04DX003 (ip), vehicle: saline with Tween-80 100 % of control | [4] 100 % of control | dose: 50.0 mg/kg/injection, schedule: Q04DX003 (ip), vehicle: saline with Tween-80 100 % of control | [5] 100 % of control | [1] 100 % of control and 109 % of control | [6] 100 % of control | [2] 100 % of control | [3] 109 % of control

Nc1nnc[se]1
inactive: dose: 12.5 mg/kg/injection, schedule: Q01DX009 (ip), vehicle: saline with Tween-80 116 % of control | dose: 12.5 mg/kg/injection, schedule: Q01DX009 (ip), vehicle: saline 96 % of control | dose: 25.0 mg/kg/injection, schedule: Q01DX009 (ip), vehicle: saline 122 % of control
active: dose: 25.0 mg/kg/injection, schedule: Q01DX009 (ip), vehicle: saline with Tween-80 151 % of control | [4] 164 % of control and 178 % of control

NC(c1ccccc1)c1c(O)ccc2ccccc12 (centres undefined)
inactive: dose: 100.0 mg/kg/injection, schedule: Q01DX009 (ip), vehicle: gum acacia 103 % of control | dose: 100.0 mg/kg/injection, schedule: Q04DX003 (ip), vehicle: gum acacia 109 % of control | dose: 200.0 mg/kg/injection, schedule: Q01DX009 (ip), vehicle: gum acacia 107 % of control | dose: 200.0 mg/kg/injection, schedule: Q04DX003 (ip), vehicle: gum acacia 122 % of control | dose: 400.0 mg/kg/injection, schedule: Q01DX009 (ip), vehicle: gum acacia 117 % of control | dose: 400.0 mg/kg/injection, schedule: Q04DX003 (ip), vehicle: gum acacia 122 % of control

O=[N+]([O-])c1ccccn1
inactive: dose: 6.25 mg/kg/injection, schedule: Q04DX003 (ip), vehicle: saline 100 % of control | dose: 12.5 mg/kg/injection, schedule: Q04DX003 (ip), vehicle: saline 100 % of control | dose: 25.0 mg/kg/injection, schedule: Q04DX003 (ip), vehicle: saline 104 % of control
